Experimental data as given in ChEMBL document CHEMBL4425136, “4-Oxo-1,4-dihydroquinoline-3-carboxamide Derivatives as New Axl Kinase Inhibitors” (J Med Chem, 2016).

Tests used:
[1] = molecular target: T1, Tyrosine-protein kinase receptor UFO (Homo sapiens, UniProt P30530); assay: Inhibition of human recombinant AXL incubated for 1 to 1.5 hrs by FRET based Z'-Lyte kinase assay
T1 sequence (P30530 whole entry): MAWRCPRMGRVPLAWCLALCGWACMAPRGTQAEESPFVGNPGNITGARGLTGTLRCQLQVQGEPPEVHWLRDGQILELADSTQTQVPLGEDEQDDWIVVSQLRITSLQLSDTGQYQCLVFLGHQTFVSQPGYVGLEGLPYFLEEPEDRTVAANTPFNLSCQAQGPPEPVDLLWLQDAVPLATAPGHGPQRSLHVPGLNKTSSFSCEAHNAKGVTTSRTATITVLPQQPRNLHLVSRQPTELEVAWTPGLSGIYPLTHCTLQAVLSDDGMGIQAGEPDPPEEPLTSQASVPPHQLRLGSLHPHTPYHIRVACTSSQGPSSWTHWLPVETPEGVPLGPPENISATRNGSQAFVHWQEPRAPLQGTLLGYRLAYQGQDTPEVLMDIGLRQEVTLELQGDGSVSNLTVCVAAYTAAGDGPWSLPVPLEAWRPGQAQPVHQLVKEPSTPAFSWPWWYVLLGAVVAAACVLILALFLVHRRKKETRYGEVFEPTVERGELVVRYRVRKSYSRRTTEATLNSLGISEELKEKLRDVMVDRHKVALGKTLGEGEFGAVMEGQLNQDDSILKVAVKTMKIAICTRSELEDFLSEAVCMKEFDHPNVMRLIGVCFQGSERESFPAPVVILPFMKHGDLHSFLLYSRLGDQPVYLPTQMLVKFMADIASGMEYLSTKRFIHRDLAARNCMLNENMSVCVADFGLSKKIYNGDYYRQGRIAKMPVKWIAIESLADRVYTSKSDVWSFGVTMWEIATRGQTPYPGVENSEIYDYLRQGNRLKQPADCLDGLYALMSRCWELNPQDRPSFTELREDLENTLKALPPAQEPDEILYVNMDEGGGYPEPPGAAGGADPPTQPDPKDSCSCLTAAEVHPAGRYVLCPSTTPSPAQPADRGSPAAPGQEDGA

[2] = Oral bioavailability in Sprague-Dawley rat at 25 mg/kg by LC/MS method; type: ADME, organism-based; details: in vivo
MDA-MB-231 [3] = assay: Effect on total AXL protein level in human MDA-MB-231 cells at 0.03 to 3 uM after 6 hrs by Western blot method; type: ADME, cell-based; details: mda-mb-231, 6 h
[4] = molecular target: T1, Tyrosine-protein kinase receptor UFO; assay: Binding affinity to human AXL by active site dependent completion binding assay
MDA-MB-231 [5] = assay: Antiproliferative activity against human MDA-MB-231 cells after 24 to 72 hrs by MTT assay; type: functional, cell-based
[6] = Tmax in Sprague-Dawley rat at 25 mg/kg, po by LC/MS method; type: ADME, organism-based; details: in vivo
4T1 [7] = assay: Antiproliferative activity against mouse 4T1 cells over-expressing Axl cells after 24 to 72 hrs by CCK8 assay; type: functional, cell-based
4T1 [8] = assay: Antiproliferative activity against mouse 4T1 cells over-expressing Axl cells after 24 to 72 hrs by MTT assay; type: functional, cell-based
MDA-MB-231 [9] = assay: Effect on total AKT protein level in human MDA-MB-231 cells at 0.03 to 3 uM after 6 hrs by Western blot method; type: ADME, cell-based; details: mda-mb-231, 6 h
MDA-MB-231 [10] = assay: Antiproliferative activity against human MDA-MB-231 cells after 24 to 72 hrs by CCK8 assay; type: functional, cell-based
MDA-MB-231 [11] = assay: Inhibition of TGFbeta1-induced cell migration in human MDA-MB-231 cells at 0.2 uM incubated for 24 hrs by wound healing assay; type: functional; details: MDA-MB-231, 24 h
[12] = Half life in Sprague-Dawley rat at 2.5 mg/kg, iv by LC/MS method; type: ADME, organism-based; details: in vivo
[13] = molecular target: Cyclin-dependent kinase 11B (Homo sapiens, UniProt P21127); assay: Binding affinity to human CDK11
MDA-MB-231 [14] = assay: Inhibition of TGFbeta1-induced cell invasion in human MDA-MB-231 cells at 1 uM incubated for 24 hrs by matrigel-mediated Boyden chamber assay; type: functional; details: MDA-MB-231, 24 h
Aurora kinase B = Aurora kinase B (Homo sapiens, UniProt Q96GD4); assay: Inhibition of aurora B (unknown origin)
Sequence of Aurora kinase B (Q96GD4 whole entry): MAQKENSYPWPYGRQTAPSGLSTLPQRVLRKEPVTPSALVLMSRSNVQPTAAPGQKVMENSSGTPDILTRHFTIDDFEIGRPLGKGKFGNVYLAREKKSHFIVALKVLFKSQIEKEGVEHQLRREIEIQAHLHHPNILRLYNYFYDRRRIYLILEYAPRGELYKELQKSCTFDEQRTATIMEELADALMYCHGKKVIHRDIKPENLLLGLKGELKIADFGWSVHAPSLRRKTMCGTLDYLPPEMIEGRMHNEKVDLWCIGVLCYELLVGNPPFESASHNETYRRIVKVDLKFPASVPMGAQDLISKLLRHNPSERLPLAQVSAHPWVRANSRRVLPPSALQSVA

MDA-MB-231 [15] = assay: Inhibition of TGFbeta1-induced cell invasion in human MDA-MB-231 cells at 5 uM incubated for 24 hrs by matrigel-mediated Boyden chamber assay; type: functional; details: MDA-MB-231, 24 h
[16] = molecular target: BDNF/NT-3 growth factors receptor (Homo sapiens, UniProt Q16620); assay: Binding affinity to human TRKB
[17] = molecular target: Mast/stem cell growth factor receptor Kit (Homo sapiens, UniProt P10721); assay: Binding affinity to human KIT
[18] = Ratio of Cmax in Sprague-Dawley rat at 25 mg/kg, po to IC50 for inhibition of human recombinant AXL; type: organism-based; details: in vivo
Aurora kinase A = Aurora kinase A (Homo sapiens, UniProt O14965); assay: Inhibition of aurora A (unknown origin)
Sequence of Aurora kinase A (O14965 whole entry): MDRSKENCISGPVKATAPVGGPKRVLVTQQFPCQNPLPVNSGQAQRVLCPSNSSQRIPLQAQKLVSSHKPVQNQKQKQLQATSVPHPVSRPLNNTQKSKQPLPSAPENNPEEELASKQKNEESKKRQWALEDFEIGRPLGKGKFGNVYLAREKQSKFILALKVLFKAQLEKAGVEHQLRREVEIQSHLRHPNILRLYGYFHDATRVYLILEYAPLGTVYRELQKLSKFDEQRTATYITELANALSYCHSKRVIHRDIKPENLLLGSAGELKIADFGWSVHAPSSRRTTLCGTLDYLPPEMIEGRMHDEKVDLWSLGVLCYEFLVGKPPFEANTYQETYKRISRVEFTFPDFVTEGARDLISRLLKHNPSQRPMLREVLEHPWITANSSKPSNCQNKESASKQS

MDA-MB-231 [19] = assay: Toxicity in human MDA-MB-231 cells at 0.04 to 5 uM incubated for 24 hrs; type: cell-based; details: mda-mb-231, 24 h
[20] = molecular target: ALK tyrosine kinase receptor (Homo sapiens, UniProt Q9UM73); assay: Binding affinity to human ALK
[21] = molecular target: Tyrosine-protein kinase Blk (Homo sapiens, UniProt P51451); assay: Binding affinity to human BLK
[22] = molecular target: T2, Receptor-type tyrosine-protein kinase FLT3 (Homo sapiens, UniProt P36888); assay: Inhibition of FLT3 (unknown origin)
T2 sequence (P36888 whole entry): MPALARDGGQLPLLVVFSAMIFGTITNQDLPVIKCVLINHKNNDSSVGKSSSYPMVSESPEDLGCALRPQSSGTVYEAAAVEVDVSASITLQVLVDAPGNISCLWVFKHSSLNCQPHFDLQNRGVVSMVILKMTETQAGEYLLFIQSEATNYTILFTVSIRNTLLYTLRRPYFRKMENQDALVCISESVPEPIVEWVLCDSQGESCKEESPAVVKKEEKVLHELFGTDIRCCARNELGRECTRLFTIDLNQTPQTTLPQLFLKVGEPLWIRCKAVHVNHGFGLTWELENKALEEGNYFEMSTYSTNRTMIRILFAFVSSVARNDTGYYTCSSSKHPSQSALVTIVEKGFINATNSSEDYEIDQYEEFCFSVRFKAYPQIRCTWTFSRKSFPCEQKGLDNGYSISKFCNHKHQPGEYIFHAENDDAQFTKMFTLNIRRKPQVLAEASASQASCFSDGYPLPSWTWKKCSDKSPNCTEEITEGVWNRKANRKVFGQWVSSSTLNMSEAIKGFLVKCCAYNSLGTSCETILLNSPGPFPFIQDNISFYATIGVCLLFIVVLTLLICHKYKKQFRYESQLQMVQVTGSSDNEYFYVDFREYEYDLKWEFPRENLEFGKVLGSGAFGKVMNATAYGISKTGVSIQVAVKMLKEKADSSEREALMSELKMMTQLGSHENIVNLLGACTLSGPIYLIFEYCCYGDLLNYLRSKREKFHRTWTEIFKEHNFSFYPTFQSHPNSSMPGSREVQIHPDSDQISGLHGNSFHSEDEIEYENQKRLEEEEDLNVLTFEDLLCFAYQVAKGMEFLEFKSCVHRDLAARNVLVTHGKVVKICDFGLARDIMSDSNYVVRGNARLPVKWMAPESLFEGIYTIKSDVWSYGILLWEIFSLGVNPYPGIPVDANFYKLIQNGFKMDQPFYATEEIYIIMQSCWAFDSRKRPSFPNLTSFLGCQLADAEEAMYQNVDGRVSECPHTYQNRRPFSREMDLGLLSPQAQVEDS

[23] = Cmax in Sprague-Dawley rat at 2.5 mg/kg, iv by LC/MS method; type: ADME, organism-based; design: dose 2.5 mg/kg, route intravenous; details: in vivo
[24] = molecular target: Epithelial discoidin domain-containing receptor 1 (Homo sapiens, UniProt Q08345); assay: Inhibition of DDR1 (unknown origin)
Sequence of Epithelial discoidin domain-containing receptor 1 (Q08345 whole entry, the tested form may be a part): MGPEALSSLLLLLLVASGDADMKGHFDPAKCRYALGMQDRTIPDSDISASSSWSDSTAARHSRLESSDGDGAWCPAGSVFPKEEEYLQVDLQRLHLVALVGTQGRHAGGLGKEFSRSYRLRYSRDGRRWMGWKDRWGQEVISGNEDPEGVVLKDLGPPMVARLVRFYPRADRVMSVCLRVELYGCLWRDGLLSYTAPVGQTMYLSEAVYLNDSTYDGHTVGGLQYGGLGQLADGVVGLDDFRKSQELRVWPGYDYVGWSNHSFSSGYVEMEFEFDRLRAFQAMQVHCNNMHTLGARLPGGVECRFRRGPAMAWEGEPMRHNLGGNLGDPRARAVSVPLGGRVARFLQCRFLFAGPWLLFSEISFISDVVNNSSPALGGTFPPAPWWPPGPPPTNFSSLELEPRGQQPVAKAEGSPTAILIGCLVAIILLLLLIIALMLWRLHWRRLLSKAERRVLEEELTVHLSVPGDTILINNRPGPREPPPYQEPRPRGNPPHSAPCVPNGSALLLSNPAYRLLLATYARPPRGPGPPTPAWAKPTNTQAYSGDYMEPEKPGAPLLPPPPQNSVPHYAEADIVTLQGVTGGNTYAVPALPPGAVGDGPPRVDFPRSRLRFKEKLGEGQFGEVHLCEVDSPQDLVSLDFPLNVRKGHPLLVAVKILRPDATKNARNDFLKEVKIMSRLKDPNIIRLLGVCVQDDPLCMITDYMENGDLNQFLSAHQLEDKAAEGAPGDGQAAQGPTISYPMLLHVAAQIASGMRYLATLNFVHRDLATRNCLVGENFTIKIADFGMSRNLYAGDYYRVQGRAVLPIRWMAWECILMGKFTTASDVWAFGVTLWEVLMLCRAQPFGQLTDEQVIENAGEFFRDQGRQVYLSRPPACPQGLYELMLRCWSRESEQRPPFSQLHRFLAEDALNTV

[25] = molecular target: Tyrosine-protein kinase Mer (Homo sapiens, UniProt Q12866); assay: Binding affinity to human MER
MDA-MB-231 [26] = assay: Inhibition of TGFbeta1-induced cell migration in human MDA-MB-231 cells at 5 uM incubated for 24 hrs by wound healing assay; type: functional; details: MDA-MB-231, 24 h
MDA-MB-231 [27] = assay: Inhibition of TGFbeta1-induced cell invasion in human MDA-MB-231 cells at 0.04 uM incubated for 24 hrs by matrigel-mediated Boyden chamber assay; type: functional; details: MDA-MB-231, 24 h
MDA-MB-231 [28] = assay: Inhibition of TGFbeta1-induced cell migration in human MDA-MB-231 cells at 1 uM incubated for 24 hrs by wound healing assay; type: functional; details: MDA-MB-231, 24 h
[29] = Clearance in Sprague-Dawley rat at 2.5 mg/kg, iv by LC/MS method; type: ADME, organism-based; details: in vivo
[30] = molecular target: STE20-like serine/threonine-protein kinase (Homo sapiens, UniProt Q9H2G2); assay: Binding affinity to human SLK
[31] = molecular target: Tyrosine-protein kinase receptor TYRO3 (Homo sapiens, UniProt Q06418); assay: Binding affinity to human Tyro3
Sequence of Tyrosine-protein kinase receptor TYRO3 (Q06418 whole entry): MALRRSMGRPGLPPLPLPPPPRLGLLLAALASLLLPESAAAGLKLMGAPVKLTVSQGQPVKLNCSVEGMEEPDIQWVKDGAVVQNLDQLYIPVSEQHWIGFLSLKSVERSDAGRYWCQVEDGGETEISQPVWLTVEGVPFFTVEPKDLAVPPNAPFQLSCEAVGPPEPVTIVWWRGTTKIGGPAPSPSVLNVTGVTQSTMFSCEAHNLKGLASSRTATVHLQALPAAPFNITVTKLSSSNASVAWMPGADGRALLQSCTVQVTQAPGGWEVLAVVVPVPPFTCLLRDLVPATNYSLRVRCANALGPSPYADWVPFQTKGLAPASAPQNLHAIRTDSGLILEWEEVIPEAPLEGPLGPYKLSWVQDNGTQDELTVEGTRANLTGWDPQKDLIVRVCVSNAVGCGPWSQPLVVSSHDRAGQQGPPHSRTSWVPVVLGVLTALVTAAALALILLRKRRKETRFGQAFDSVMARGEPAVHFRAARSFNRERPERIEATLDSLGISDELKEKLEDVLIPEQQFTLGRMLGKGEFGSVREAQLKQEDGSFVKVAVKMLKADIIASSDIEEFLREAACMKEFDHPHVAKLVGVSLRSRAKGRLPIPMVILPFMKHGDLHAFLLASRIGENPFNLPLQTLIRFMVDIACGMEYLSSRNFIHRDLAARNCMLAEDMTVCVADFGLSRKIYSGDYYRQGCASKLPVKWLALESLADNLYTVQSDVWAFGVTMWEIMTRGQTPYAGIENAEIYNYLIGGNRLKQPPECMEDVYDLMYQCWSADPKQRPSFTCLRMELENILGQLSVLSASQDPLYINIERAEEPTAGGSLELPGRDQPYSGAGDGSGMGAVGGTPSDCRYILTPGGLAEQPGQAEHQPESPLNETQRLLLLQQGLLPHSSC

[32] = molecular target: T1, Tyrosine-protein kinase receptor UFO; assay: Binding affinity to human AXL
[33] = molecular target: Serine/threonine-protein kinase 10 (Homo sapiens, UniProt O94804); assay: Binding affinity to human LOK
MDA-MB-231 [34] = assay: Inhibition of TGFbeta1-induced cell invasion in human MDA-MB-231 cells at 0.2 uM incubated for 24 hrs by matrigel-mediated Boyden chamber assay; type: functional; details: MDA-MB-231, 24 h
[35] = molecular target: Dual specificity mitogen-activated protein kinase kinase 5 (Homo sapiens, UniProt Q13163); assay: Binding affinity to human MEK5
[36] = molecular target: Hepatocyte growth factor receptor (Homo sapiens, UniProt P08581); assay: Binding affinity to human MET
[37] = molecular target: T2, Receptor-type tyrosine-protein kinase FLT3; assay: Binding affinity to human FLT3
[38] = molecular target: Cyclin-dependent kinase 8 (Homo sapiens, UniProt P49336); assay: Binding affinity to human CDK8
Sequence of Cyclin-dependent kinase 8 (P49336 whole entry): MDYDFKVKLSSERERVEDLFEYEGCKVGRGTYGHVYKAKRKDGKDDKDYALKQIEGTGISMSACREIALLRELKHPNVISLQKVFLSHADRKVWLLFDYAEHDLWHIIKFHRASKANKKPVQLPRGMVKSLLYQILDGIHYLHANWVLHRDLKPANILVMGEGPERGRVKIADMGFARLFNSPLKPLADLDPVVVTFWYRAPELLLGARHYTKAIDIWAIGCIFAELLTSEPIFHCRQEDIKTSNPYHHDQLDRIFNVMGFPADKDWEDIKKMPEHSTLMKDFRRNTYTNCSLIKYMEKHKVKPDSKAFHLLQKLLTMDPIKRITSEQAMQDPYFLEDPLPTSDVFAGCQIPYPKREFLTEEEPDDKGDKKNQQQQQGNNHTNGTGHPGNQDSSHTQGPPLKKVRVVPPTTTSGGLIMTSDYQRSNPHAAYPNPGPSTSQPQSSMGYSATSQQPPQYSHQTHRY

[39] = molecular target: High affinity nerve growth factor receptor (Homo sapiens, UniProt P04629); assay: Binding affinity to human TRKA
[40] = molecular target: Homeodomain-interacting protein kinase 4 (Homo sapiens, UniProt Q8NE63); assay: Binding affinity to human HIPk4
[41] = AUC (0 to infinity) in Sprague-Dawley rat at 2.5 mg/kg, iv by LC/MS method; type: ADME, organism-based; design: dose 2.5 mg/kg, route intravenous, time infinity; details: in vivo
[42] = molecular target: Discoidin domain-containing receptor 2 (Homo sapiens, UniProt Q16832); assay: Inhibition of DDR2 (unknown origin)
Sequence of Discoidin domain-containing receptor 2 (Q16832 whole entry, the tested form may be a part): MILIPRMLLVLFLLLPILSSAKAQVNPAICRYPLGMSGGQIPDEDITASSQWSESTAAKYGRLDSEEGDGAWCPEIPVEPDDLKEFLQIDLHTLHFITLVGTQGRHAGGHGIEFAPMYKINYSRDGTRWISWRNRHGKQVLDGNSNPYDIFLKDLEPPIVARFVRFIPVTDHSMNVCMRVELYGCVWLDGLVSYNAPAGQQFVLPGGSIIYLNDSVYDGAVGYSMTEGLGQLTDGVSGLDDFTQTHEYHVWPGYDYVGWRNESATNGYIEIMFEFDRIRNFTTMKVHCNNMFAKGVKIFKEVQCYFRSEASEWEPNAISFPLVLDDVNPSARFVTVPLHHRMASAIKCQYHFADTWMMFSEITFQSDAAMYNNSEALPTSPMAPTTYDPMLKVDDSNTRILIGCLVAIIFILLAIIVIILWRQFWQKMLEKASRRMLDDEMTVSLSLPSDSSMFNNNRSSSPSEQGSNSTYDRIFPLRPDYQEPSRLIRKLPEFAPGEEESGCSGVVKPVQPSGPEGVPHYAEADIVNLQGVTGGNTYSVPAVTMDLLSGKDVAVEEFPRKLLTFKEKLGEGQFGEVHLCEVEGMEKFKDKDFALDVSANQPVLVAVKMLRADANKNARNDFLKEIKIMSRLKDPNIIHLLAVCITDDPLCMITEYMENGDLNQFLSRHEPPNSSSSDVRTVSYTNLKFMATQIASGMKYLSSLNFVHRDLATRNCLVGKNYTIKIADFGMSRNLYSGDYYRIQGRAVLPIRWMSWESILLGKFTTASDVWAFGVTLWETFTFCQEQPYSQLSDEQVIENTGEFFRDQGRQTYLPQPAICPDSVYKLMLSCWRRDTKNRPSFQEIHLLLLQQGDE

Cc1c(C(=O)Nc2ccc(Oc3ncnc4[nH]cc(-c5ccccc5)c34)c(F)c2)c(=O)c2cc(OC(F)(F)F)ccc2n1C
IC50 [1]: 74 nM

Cc1ccc2c(c1)c(=O)c(C(=O)Nc1ccc(Oc3ncnc4[nH]cc(-c5ccccc5)c34)c(F)c1)cn2C
IC50 [1]: 150 nM

CCc1ccc2c(c1)c(=O)c(C(=O)Nc1ccc(Oc3ccnc(Cl)c3)c(F)c1)c(C)n2C
IC50 [1]: > 10000 nM

COC(=O)c1ccc2c(c1)c(=O)c(C(=O)Nc1ccc(Oc3ncnc4[nH]cc(-c5ccccc5)c34)c(F)c1)c(C)n2C
IC50 [1]: > 10000 nM

CCc1ccc2c(c1)c(=O)c(C(=O)Nc1ccc(Oc3ncnc4[nH]cc(-c5ccccc5)c34)c(F)c1)c(C)n2C
bioavailability [2]: 1.2%
Activity (MDA-MB-231 [3]): Non-Toxic
Kd [4]: 1.2 nM
IC50 (MDA-MB-231 [5]): > 10000 nM
Tmax [6]: 0.67 h
IC50 (4T1 [7]): > 10000 nM
IC50 (4T1 [8]): > 10000 nM
Activity (MDA-MB-231 [9]): Non-Toxic
IC50 (MDA-MB-231 [10]): > 10000 nM

CCc1ccc2c(c1)c(=O)c(C(=O)Nc1ccc(Oc3ncnc4cc(OC)c(OC)cc34)c(F)c1)c(C)n2C
inhibition at 0.2 µM (MDA-MB-231 [11]): 24.2%
half-life [12]: 25.2 h
Kd [13]: 470 nM
inhibition at 1 µM (MDA-MB-231 [14]): 73.5%
IC50 (Aurora kinase B): 114 nM
inhibition at 5 µM (MDA-MB-231 [15]): 78.1%
Activity (MDA-MB-231 [3]): Non-Toxic
Kd [16]: 54 nM
Kd [17]: 1670 nM
Ratio [18]: > 900
IC50 (Aurora kinase A): 192 nM
Activity (MDA-MB-231 [19]): Non-Toxic
Kd [20]: > 1000 nM
Kd [4]: 2.7 nM
Kd [21]: 200 nM
IC50 [22]: < 10 nM
Cmax [23]: 1170 ng/mL
IC50 [24]: 22.2 nM
Kd [25]: 1.4 nM
IC50 (MDA-MB-231 [5]): > 10000 nM
inhibition at 5 µM (MDA-MB-231 [26]): 58.4%
inhibition at 0.04 µM (MDA-MB-231 [27]): 48.5%
inhibition at 1 µM (MDA-MB-231 [28]): 50.6%
clearance [29]: 1.67 mL/min/kg
Kd [30]: 240 nM
Kd [31]: 58 nM
Kd [32]: 2.7 nM
Tmax [6]: 6 h
IC50 (4T1 [7]): > 10000 nM
Kd [33]: 10 nM
IC50 (4T1 [8]): > 10000 nM
Activity (MDA-MB-231 [9]): Non-Toxic
inhibition at 0.2 µM (MDA-MB-231 [34]): 52.1%
Kd [35]: 38 nM
Kd [36]: 79 nM
Kd [37]: 4 nM
Kd [38]: > 1000 nM
Kd [39]: 50 nM
Kd [40]: 11 nM
AUC(0-inf) [41]: 42300 ng·h/mL
IC50 [42]: 350 nM
IC50 (MDA-MB-231 [10]): > 10000 nM

CCc1ccc2c(c1)c(=O)c(C(=O)Nc1ccc(Oc3ccnc4[nH]cc(-c5ccccc5)c34)c(F)c1)c(C)n2C
IC50 [1]: 30 nM

Cc1c(C(=O)Nc2ccc(Oc3ncnc4[nH]cc(-c5ccccc5)c34)c(F)c2)c(=O)c2cc(C3=CCCC3)ccc2n1C
IC50 [1]: 3320 nM

Cc1ccc2c(c1)c(=O)c(C(=O)Nc1ccc(Oc3ncnc4[nH]cc(-c5ccccc5)c34)c(F)c1)c(C)n2C
IC50 [1]: 100 nM

CCc1ccc2c(c1)c(=O)c(C(=O)Nc1ccc(Oc3ccnc4occ(-c5ccccc5)c34)c(F)c1)c(C)n2C
IC50 [1]: 192 nM

C=C(C)c1ccc2c(c1)c(=O)c(C(=O)Nc1ccc(Oc3ncnc4[nH]cc(-c5ccccc5)c34)c(F)c1)c(C)n2C
IC50 [1]: 170 nM

Cc1c(C(=O)Nc2ccc(Oc3ncnc4[nH]cc(-c5ccccc5)c34)c(F)c2)c(=O)c2cc(C(F)(F)F)ccc2n1C
IC50 [1]: 150 nM

Cc1c(C(=O)Nc2ccc(Oc3ncnc4[nH]cc(-c5ccccc5)c34)c(F)c2)c(=O)c2cc(C3CC3)ccc2n1C
IC50 [1]: 230 nM

CCc1ccc2c(c1)c(=O)c(C(=O)Nc1ccc(Oc3ccnc(C(N)=O)c3Cl)c(F)c1)c(C)n2C
IC50 [1]: > 10000 nM

Cc1c(C(=O)Nc2ccc(Oc3ncnc4[nH]cc(-c5ccccc5)c34)c(F)c2)c(=O)c2cc(C3CCCC3)ccc2n1C
IC50 [1]: 200 nM

CCn1c(C)c(C(=O)Nc2ccc(Oc3ncnc4[nH]cc(-c5ccccc5)c34)c(F)c2)c(=O)c2cc(C)ccc21
IC50 [1]: 150 nM

CCc1ccc2c(c1)c(=O)c(C(=O)Nc1ccc(Oc3ncnc4[nH]cc(-c5ccccc5)c34)cc1F)c(C)n2C
IC50 [1]: 30 nM
